Reference: ChEMBL document CHEMBL1146654, “3-(7-Azaindolyl)-4-arylmaleimides as potent, selective inhibitors of glycogen synthase kinase-3” (Bioorg Med Chem Lett, 2004)

What was measured:
Set-up in all cases: scale not given: the % may be the effect or the level left
[1] = target: Ribosomal protein S6 kinase alpha-2 (Homo sapiens) (UniProt Q15349); test: Inhibition of Ribosomal S6 kinase 2
[2] = target: Rho-associated protein kinase 2 (Homo sapiens) (UniProt O75116); test: (§1) Inhibition of ROCK-II
[3] = target: Rho-associated protein kinase 2 (Rattus norvegicus) (UniProt Q62868); test: as §1
[4] = target: CDK3/cyclin E (Homo sapiens) (UniProt P24864+O96020+Q00526); test: Inhibition of Cyclin-dependent kinase 3-cyclin E; format: protein-complex assay
[5] = target: Tyrosine-protein kinase Blk (Mus musculus) (UniProt P16277); test: Inhibition of B lymphoid tyrosine kinase
[6] = target: T1, Mitogen-activated protein kinase 12 (Homo sapiens) (UniProt P53778); test: Inhibition of Stress activated protein kinase 3
T1 sequence (whole entry): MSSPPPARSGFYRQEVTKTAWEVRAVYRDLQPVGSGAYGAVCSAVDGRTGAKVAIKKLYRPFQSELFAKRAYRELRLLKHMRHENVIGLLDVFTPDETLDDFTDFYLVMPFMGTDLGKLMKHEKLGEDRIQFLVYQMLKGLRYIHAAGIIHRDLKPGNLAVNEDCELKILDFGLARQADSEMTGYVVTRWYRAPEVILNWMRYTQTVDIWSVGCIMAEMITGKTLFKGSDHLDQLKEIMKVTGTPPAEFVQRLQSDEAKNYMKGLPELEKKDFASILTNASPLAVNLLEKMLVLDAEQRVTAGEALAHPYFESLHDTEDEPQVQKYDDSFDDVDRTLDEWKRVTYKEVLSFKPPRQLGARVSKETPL

[7] = target: Tyrosine-protein kinase Fes/Fps (Homo sapiens) (UniProt P07332); test: Inhibition of Fes kinase
[8] = target: Ca2+/calmodulin-dependent protein kinase II (CaM kinase II) (Rattus norvegicus) (UniProt P11275+P08413+P15791+P11730); test: Inhibition of Calcium/calmodulin-dependent protein kinase type II; format: protein assay
[9] = target: Protein kinase C alpha type (Homo sapiens, UniProt P17252); test: Inhibition of PKCalpha
[10] = target: T2, Calcium/calmodulin-dependent protein kinase type IV (Homo sapiens) (UniProt Q16566); test: Inhibition of Calcium/calmodulin-dependent protein kinase type IV
T2 sequence (whole entry): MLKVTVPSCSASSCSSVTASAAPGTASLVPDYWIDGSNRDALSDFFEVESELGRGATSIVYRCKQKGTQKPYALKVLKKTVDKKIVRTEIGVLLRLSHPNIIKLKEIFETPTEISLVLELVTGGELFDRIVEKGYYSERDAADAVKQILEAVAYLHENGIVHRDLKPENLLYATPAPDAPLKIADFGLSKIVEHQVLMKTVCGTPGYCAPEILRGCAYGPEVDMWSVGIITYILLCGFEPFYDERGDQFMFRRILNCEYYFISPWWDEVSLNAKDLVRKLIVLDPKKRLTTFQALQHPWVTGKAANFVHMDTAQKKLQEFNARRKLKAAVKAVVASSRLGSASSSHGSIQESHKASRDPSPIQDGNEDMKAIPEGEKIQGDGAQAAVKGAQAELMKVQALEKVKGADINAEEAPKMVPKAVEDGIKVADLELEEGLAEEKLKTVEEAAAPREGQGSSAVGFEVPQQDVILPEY

[11] = target: Tyrosine-protein kinase Lck (Homo sapiens) (UniProt P06239); test: Inhibition of p56 Lck tyrosine kinase
[12] = target: Mitogen-activated protein kinase 9 (Homo sapiens) (UniProt P45984); test: Inhibition of c-Jun N-terminal kinase 2-alpha 2
[13] = target: T3, 3-phosphoinositide-dependent protein kinase 1 (Homo sapiens) (UniProt O15530); test: Inhibition of PDK1
T3 sequence (whole entry): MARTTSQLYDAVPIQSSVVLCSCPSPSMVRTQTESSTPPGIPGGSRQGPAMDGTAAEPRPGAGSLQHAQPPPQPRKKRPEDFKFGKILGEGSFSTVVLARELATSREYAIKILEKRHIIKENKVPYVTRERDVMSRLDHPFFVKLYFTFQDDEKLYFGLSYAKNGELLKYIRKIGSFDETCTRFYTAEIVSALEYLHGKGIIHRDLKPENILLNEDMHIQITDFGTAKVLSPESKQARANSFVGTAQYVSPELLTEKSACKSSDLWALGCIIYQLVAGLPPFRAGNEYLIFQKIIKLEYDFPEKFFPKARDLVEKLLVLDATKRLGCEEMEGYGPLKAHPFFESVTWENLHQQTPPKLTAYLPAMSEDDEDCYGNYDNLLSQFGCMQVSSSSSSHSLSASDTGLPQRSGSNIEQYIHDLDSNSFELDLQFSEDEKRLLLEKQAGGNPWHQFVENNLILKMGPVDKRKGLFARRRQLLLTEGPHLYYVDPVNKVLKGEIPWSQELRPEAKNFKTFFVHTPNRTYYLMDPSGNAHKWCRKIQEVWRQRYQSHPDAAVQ

[14] = target: Insulin receptor (Homo sapiens) (UniProt P06213); test: Inhibition of IR kinase
[15] = organism: Bos taurus; test: Inhibition of bovine PKA
[16] = target: T4, Mitogen-activated protein kinase 13 (Homo sapiens) (UniProt O15264); test: Inhibition of Stress activated protein kinase 4
T4 sequence (whole entry): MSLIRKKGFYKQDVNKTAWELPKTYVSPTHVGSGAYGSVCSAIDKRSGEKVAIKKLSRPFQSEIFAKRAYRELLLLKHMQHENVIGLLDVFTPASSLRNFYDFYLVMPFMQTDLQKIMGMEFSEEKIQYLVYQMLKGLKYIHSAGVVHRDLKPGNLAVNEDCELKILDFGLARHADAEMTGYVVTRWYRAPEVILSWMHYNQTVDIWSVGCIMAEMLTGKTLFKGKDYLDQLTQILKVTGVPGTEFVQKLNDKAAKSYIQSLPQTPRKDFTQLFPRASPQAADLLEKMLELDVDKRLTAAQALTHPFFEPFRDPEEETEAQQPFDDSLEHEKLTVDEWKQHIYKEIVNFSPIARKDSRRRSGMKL

[17] = target: Glycogen synthase kinase-3 beta (Homo sapiens, UniProt P49841); test: Inhibition of glycogen synthase kinase-3 beta
[18] = target: Serine/threonine-protein kinase N2 (Homo sapiens) (UniProt Q16513); test: Inhibition of compound PRK2
[19] = target: Cyclin-dependent kinase 5/CDK5 activator 1 (Homo sapiens) (UniProt Q00535+Q15078); test: Inhibition of Cyclin-dependent kinase 5-p35nck5a; format: protein-complex assay
[20] = organism: Rattus norvegicus; test: Inhibition of AMP-activated Protein Kinase

Chain of Insulin receptor (Homo sapiens) (P06213 28-758 limits assumed): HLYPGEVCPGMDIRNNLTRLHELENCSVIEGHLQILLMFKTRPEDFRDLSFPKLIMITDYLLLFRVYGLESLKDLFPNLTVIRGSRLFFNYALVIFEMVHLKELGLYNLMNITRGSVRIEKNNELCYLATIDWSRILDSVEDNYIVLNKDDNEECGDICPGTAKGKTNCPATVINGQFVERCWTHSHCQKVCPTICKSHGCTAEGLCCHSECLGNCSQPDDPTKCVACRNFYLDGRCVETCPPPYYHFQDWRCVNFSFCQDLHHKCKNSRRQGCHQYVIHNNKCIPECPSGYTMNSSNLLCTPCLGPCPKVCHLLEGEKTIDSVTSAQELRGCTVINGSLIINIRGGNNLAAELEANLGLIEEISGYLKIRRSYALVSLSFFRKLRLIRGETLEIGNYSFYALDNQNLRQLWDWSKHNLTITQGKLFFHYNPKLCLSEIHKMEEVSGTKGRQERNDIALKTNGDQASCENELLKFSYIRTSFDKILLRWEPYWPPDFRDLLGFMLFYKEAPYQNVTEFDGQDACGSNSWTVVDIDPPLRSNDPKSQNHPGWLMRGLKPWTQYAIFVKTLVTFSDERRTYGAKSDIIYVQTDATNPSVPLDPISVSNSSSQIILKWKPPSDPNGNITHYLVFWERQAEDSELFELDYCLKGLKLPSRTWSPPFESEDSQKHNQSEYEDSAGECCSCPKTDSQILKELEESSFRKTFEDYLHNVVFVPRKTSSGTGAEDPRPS
Chain of Insulin receptor (Homo sapiens) (P06213 763-1382 limits assumed): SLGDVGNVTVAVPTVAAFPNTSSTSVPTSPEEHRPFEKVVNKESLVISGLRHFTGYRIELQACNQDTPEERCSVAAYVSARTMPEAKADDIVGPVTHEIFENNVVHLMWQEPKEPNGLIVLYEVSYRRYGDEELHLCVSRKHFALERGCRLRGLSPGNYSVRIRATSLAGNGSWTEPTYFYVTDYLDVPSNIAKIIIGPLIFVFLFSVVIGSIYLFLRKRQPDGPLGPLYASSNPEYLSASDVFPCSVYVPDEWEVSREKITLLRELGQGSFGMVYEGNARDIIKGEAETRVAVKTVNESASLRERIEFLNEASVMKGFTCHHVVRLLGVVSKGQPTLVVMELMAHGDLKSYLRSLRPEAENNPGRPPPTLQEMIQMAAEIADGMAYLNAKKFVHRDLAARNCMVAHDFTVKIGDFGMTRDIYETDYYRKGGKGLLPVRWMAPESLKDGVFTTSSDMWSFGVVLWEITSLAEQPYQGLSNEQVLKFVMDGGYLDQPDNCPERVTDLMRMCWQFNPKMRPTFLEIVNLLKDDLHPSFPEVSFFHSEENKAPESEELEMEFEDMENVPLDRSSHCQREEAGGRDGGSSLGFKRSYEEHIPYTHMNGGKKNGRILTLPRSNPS
Chain of Tyrosine-protein kinase Fes/Fps (Homo sapiens) (P07332 whole entry): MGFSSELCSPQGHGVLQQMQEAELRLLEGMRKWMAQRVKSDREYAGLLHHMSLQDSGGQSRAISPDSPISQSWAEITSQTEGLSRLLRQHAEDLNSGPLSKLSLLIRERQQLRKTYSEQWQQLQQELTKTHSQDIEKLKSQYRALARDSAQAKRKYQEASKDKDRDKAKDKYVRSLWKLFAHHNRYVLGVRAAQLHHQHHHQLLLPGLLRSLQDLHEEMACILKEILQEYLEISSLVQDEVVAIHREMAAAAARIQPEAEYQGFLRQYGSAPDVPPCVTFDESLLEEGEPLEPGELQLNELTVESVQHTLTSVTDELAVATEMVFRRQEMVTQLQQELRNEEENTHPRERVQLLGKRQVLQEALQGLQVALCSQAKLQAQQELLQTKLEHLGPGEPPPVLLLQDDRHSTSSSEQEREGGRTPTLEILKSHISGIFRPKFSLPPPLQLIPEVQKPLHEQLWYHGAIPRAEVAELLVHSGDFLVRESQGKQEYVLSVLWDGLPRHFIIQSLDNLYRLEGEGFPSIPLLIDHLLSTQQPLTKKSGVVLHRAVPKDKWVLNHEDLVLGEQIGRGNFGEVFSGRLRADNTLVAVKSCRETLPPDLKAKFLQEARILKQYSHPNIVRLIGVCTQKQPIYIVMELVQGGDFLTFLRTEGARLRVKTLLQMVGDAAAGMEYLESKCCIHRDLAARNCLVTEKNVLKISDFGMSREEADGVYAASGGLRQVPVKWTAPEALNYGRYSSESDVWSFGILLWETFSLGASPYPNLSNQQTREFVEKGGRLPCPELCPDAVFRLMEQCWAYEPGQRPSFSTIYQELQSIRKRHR
Chain of Tyrosine-protein kinase Lck (Homo sapiens) (P06239 2-509 limits assumed): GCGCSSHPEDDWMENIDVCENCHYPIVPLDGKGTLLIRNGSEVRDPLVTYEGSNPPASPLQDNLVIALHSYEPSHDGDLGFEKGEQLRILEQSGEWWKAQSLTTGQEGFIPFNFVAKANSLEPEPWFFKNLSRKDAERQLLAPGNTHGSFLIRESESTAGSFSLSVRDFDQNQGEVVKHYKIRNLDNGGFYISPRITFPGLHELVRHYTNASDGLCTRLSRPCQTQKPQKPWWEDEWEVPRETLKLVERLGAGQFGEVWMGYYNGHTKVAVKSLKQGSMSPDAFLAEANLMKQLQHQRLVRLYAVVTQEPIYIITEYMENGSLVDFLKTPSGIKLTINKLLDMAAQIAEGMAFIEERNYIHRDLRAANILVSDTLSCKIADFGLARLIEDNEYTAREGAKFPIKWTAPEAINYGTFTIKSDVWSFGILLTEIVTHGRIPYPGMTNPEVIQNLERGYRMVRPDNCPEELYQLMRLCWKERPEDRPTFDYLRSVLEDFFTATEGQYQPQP
Chain of Ribosomal protein S6 kinase alpha-2 (Homo sapiens) (Q15349 whole entry): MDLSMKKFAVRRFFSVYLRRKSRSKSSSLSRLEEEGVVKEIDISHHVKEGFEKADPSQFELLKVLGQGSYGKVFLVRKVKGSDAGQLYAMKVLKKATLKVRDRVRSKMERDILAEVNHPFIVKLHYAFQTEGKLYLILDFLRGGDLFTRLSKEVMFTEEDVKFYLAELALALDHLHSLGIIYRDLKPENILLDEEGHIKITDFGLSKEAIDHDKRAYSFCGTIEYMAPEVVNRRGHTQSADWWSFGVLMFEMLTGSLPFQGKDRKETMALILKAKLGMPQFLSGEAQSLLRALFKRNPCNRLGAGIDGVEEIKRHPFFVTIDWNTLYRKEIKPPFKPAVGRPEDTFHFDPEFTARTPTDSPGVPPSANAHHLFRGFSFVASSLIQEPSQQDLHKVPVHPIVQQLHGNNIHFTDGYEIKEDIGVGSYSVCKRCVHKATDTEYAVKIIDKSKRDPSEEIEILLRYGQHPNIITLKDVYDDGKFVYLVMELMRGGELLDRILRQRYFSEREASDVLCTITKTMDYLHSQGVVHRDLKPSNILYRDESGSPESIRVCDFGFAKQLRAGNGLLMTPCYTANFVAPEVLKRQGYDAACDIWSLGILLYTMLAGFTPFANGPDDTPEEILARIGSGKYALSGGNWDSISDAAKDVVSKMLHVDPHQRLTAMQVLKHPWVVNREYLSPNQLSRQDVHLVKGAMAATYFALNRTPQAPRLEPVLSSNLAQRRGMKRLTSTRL
Chain of Serine/threonine-protein kinase N2 (Homo sapiens) (Q16513 whole entry, looked up): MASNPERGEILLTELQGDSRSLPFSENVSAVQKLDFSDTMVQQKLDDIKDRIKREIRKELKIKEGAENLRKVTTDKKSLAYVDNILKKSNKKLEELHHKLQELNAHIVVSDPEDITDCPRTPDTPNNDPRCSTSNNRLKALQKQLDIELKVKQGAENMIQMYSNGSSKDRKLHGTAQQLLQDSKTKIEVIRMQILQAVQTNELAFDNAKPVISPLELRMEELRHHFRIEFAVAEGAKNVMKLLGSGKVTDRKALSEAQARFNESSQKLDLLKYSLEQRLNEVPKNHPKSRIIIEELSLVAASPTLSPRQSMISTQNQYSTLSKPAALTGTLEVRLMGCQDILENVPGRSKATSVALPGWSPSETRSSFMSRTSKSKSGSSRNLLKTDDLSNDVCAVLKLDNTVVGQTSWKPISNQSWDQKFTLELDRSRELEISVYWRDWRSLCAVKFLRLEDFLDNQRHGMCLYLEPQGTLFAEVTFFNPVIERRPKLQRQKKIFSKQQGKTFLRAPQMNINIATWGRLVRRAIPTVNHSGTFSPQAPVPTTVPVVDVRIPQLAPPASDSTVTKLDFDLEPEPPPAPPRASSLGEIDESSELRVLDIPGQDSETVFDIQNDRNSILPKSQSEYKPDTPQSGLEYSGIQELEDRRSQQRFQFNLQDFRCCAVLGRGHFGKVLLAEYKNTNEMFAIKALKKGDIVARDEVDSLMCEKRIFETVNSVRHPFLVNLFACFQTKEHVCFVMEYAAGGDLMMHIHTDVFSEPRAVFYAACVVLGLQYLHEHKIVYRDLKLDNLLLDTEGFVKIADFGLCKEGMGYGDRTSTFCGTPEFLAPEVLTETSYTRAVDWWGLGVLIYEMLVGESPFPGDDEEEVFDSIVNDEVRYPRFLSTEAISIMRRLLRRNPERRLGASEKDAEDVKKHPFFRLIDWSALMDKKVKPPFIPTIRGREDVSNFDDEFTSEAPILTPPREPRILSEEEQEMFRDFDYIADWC

Row | Activity [1] [%] | Activity [2] [%] | Activity [3] [%] | Activity [4] [%] | Activity [5] [%] | Activity [6] [%] | Activity [7] [%] | Activity [8] [%] | Activity [9] [%] | Activity [10] [%] | Activity [11] [%] | Activity [12] [%] | Activity [13] [%] | Activity [14] [%] | Activity [15] [%] | Activity [16] [%] | Activity [17] [%] | Activity [18] [%] | Activity [19] [%] | Activity [20] [%] | SMILES
1 | 54 | 100 | 94 | 26 | 75 | 120 | 79 | 63 | 46 | 82 | 84 | 63 | 78 | 88 | 99 | 97 | 1 | 76 | 9 | 68 | COCCCn1cc(C2=C(c3ccccc3O)C(=O)NC2=O)c2cccnc21
2 | 31 | 78 | 91 | 3 | 63 | 122 | 87 | 60 | 38 | 91 | 67 | 84 | 20 | 94 | 112 | 100 | 0 | 68 | 2 | 64 | COc1ccccc1C1=C(c2cn(CCCNC(=O)OC(C)(C)C)c3ncccc23)C(=O)NC1=O
3 | 77 | 90 | 97 | 62 | 67 | 86 | 81 | 76 | 70 | 82 | 82 | 93 | 79 | 95 | 86 | 86 | 3 | 71 | 25 | 74 | O=C1NC(=O)C(c2cn(CCCO)c3ncccc23)=C1c1ncc(C(F)(F)F)cc1Cl
